The values below come from ChEMBL document CHEMBL1201862, “PubChem BioAssay data set” (2004).

Activity calls are given as the source filed them.

In one data set the target is Keap1/Nrf2 (Homo sapiens, UniProt Q14145). Kind of data set: disruptors of Keap1 binding to Nrf2 peptide – biochemical, fluorescence polarization, cherry-picked samples, dose response (AID 588683). For orientation: Polarisation of emitted light reports the rotation of a fluorescent probe.
The target of data set [1] is T1, Mu-type opioid receptor (Homo sapiens, UniProt P35372). In words: SAR Analysis of Antagonists of the MOR Receptor using an Image-Based Assay - Set 2. [Related pubchem assays (depositor defined):AID1777, AID1785, AID1786, AID1966, AID2133, AID2136, AID2284, AID2285, AID2420]. Format: functional.
Data set [2] addresses T2, Kappa-type opioid receptor (Homo sapiens, UniProt P41145). In words: SAR analysis of Antagonists of the Kappa Opioid Receptor (KOR) using an Image-Based Assay - Set 2. [Related pubchem assays (depositor defined):AID1777, AID1785, AID1786, AID1966, AID2133, AID2136, AID2284, AID2285, AID2348]. Format: functional.
The target in data set [3] is T1, Mu-type opioid receptor. Kind of data set: SAR Analysis of Agonists of the MOR Receptor using an Image-Based Assay - Set 2. [Related pubchem assays (depositor defined):AID1777, AID1785, AID1786, AID1966, AID2133, AID2136, AID2284, AID2285, AID2352]. Format: functional.
Data set [4] addresses T2, Kappa-type opioid receptor. In words: SAR analysis of small molecule agonists of the kappa opioid receptor via a luminescent beta-arrestin assay - Set 2. [Related pubchem assays (depositor defined):AID1777, AID1785, AID1786, AID1966, AID2133, AID2136, AID2284, AID449737]. Format: functional.
Data set [5] addresses T3, Delta-type opioid receptor (Homo sapiens, UniProt P41143). Kind of data set: SAR Analysis of Agonists of the DOR Receptor using an Image-Based Assay - Set 2. [Related pubchem assays (depositor defined):AID1777, AID1785, AID1786, AID1966, AID2133, AID2136, AID2284, AID2285, AID2370]. Format: functional.
For data set [6], the target named is T3, Delta-type opioid receptor. Kind of data set: SAR Analysis of Antagonists of the DOR Receptor using an Image-Based Assay - Set 2. [Related pubchem assays (depositor defined):AID1777, AID1785, AID1786, AID1966, AID2133, AID2136, AID2284, AID2285, AID2357]. Format: functional.
Data set [7] has as its target T2, Kappa-type opioid receptor. Kind of data set: SAR analysis of Agonists of the Kappa Opioid Receptor (KOR) using an Image-Based Assay - Set 2. [Related pubchem assays (depositor defined):AID1777, AID1786, AID1966, AID2133, AID2136, AID2284, AID2285, AID2359]. Format: functional.
The next data set has as its system Escherichia coli. Kind of data set: microbe, parasite or virus in culture.
For data set [8], the target named is Dual specificity protein phosphatase 3 (Homo sapiens, UniProt P51452). In words: SAR VHR1 Fluorescent Assay for In Vitro dose response studies Set 3. [Related pubchem assays (depositor defined):AID1654, AID1661, AID1878]. Format: functional.
For data set [9], the target named is T4, Tyrosine-protein phosphatase non-receptor type 7 (Homo sapiens, UniProt P35236).
T4 sequence (P35236 whole entry): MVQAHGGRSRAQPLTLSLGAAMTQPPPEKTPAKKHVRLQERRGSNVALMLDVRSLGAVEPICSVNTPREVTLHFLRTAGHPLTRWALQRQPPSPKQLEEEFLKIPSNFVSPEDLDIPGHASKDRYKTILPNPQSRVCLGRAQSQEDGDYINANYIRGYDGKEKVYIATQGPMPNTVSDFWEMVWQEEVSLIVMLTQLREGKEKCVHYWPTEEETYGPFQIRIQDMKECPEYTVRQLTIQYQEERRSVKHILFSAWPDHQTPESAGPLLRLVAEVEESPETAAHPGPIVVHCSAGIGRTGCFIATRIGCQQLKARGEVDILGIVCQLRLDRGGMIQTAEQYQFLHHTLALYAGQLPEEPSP
Format: functional.

Data set [10] deals with Glyceraldehyde-3-phosphate dehydrogenase (Homo sapiens, UniProt P04406).
Data set [11] deals with T5, Dual specificity protein phosphatase 6 (Rattus norvegicus, UniProt Q64346).
T5 sequence (Q64346 whole entry): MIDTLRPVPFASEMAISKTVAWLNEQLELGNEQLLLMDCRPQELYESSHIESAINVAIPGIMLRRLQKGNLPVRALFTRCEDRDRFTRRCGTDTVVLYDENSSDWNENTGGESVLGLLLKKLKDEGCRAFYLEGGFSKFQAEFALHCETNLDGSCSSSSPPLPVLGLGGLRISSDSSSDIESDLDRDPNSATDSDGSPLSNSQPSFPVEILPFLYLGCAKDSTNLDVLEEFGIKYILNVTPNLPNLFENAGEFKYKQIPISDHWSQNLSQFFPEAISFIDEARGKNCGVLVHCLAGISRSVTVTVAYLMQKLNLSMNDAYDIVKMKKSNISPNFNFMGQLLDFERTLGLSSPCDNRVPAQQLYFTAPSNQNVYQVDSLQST

Data set [12] has as its target T5, Dual specificity protein phosphatase 6. Format: functional.
The next data set concerns the target Cytochrome P450 2C19 (Homo sapiens, UniProt P33261). In words: Cytochrome panel assay with activity outcomes. Panel member name: p450-cyp2c19 Compounds with AC50 equal or less than 10 uM are considered active. Format: functional. Particulars: read-out: AC50.
A further data set concerns the target Cytochrome P450 3A4 (Homo sapiens, UniProt P08684).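 Further: CYP3A4 tested as one member of a cytochrome P450 panel screen.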

T2 sequence (P41145 whole entry): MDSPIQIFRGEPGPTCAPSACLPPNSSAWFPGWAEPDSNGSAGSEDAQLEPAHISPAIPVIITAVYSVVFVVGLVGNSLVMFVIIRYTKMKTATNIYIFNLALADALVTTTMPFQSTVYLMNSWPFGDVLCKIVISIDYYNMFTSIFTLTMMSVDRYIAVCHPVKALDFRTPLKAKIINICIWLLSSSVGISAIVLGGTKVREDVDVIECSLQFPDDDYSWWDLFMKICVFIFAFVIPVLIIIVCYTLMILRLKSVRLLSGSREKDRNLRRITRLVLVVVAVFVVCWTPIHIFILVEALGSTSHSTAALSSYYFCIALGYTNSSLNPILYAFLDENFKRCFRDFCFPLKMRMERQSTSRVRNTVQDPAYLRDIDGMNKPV
T3 sequence (P41143 whole entry): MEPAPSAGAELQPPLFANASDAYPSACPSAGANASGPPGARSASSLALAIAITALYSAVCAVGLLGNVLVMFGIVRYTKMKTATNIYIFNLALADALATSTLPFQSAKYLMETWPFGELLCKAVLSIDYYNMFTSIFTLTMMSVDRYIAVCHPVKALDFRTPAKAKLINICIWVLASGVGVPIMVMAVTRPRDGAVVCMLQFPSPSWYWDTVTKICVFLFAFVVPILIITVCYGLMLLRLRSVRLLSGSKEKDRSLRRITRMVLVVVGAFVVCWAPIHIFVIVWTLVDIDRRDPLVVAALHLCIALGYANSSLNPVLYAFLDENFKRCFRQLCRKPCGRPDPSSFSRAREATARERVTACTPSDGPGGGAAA
T1 sequence (P35372 whole entry): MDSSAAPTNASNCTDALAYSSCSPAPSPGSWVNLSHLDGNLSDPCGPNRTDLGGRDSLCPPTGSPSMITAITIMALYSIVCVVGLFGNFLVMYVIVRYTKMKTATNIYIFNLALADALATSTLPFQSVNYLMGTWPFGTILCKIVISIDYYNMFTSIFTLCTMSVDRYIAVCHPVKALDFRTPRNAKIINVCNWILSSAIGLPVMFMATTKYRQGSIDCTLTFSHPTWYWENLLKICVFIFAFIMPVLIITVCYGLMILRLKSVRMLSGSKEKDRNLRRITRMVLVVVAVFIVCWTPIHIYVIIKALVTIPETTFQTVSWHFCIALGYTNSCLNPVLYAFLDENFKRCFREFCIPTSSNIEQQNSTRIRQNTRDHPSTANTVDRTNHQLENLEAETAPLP
Chain of Keap1/Nrf2 (Q16236 whole entry): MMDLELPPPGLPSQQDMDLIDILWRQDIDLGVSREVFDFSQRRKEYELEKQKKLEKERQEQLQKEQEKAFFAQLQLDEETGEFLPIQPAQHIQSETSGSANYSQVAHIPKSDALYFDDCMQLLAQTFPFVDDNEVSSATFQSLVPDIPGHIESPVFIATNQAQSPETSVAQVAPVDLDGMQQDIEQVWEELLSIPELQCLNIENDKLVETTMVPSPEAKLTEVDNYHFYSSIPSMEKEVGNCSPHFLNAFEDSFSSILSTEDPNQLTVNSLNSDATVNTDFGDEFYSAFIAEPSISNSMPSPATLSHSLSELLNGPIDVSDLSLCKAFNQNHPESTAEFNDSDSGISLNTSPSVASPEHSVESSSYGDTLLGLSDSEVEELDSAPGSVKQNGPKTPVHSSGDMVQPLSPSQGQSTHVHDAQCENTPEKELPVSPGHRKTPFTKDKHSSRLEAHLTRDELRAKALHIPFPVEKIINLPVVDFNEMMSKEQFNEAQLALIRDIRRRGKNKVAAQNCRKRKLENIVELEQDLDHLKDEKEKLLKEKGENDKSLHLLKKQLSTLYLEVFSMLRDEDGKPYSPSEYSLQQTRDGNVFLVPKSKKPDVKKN
Chain of Keap1/Nrf2 (Q14145 whole entry): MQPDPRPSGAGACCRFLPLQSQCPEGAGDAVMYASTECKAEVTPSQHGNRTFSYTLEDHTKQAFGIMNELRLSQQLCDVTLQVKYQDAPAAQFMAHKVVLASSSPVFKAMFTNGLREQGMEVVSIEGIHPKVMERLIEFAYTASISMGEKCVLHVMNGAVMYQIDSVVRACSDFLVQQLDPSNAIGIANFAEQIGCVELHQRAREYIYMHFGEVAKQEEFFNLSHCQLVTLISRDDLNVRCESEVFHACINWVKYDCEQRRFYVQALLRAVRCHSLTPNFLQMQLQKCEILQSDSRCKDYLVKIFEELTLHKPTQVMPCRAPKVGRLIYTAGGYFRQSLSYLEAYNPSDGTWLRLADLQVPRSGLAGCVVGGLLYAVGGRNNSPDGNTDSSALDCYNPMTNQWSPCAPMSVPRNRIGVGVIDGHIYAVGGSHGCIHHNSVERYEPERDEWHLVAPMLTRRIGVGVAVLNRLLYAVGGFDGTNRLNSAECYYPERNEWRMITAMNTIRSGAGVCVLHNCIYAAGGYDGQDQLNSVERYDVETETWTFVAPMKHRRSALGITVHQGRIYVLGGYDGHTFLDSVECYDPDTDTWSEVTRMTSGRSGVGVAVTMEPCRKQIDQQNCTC
Chain of Glyceraldehyde-3-phosphate dehydrogenase (P04406 whole entry): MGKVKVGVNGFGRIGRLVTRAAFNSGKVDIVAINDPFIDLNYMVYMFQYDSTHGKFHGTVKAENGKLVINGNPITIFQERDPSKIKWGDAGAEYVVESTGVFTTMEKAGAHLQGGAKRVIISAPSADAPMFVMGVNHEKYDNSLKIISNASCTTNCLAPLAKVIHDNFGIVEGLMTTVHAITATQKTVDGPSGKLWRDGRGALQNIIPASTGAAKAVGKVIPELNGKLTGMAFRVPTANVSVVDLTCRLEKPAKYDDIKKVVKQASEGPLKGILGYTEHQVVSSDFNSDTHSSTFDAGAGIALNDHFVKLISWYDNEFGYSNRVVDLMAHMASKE
Chain of Cytochrome P450 2C19 (P33261 whole entry): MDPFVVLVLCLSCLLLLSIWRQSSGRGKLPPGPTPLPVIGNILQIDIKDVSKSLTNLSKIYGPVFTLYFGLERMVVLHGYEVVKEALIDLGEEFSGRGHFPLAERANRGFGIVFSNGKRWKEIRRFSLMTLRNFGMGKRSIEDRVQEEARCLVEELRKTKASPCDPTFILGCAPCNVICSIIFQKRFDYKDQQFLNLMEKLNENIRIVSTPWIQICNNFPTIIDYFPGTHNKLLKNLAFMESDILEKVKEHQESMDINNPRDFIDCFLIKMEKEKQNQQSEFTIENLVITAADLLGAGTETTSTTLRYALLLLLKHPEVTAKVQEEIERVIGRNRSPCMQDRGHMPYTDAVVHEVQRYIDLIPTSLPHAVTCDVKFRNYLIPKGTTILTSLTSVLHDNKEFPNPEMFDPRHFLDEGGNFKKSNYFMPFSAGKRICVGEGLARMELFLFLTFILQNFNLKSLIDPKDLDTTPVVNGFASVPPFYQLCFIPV
Chain of Cytochrome P450 3A4 (P08684 whole entry): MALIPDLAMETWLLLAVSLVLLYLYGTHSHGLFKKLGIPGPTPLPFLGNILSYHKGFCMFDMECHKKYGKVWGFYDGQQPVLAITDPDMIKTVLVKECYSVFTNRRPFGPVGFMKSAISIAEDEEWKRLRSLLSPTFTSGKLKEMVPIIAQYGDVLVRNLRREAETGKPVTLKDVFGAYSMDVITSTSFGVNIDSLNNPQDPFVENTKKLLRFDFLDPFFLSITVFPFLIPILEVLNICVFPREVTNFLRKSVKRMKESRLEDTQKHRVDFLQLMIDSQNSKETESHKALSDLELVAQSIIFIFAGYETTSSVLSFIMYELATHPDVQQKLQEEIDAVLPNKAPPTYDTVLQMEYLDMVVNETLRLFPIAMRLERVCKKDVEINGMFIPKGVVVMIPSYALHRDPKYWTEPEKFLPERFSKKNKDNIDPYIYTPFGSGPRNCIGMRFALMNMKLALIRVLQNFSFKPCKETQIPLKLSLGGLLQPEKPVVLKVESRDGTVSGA
Chain of Dual specificity protein phosphatase 3 (P51452 whole entry): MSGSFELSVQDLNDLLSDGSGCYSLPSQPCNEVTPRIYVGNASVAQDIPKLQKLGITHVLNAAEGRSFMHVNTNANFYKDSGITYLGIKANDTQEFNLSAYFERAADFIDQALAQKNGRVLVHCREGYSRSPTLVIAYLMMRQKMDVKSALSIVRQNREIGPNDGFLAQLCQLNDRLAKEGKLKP

The AC50 is the midpoint of the concentration-response curve, whichever way the signal moves. Turning to `CCCCOc1nc2nc(-c3ccco3)n(Cc3ccco3)c(N)c-2c1C#N`, at Keap1/Nrf2, the AC50 was > 52 µM (inactive).
What is called IC50 is the concentration needed to halve the response being measured. The term EC50 denotes the concentration that produces a half-maximal response. Turning to `c1ccc(CSc2nnc(-c3ccccn3)n2Cc2ccco2)cc1`, the IC50 (at Mu-type opioid receptor [1]; in [2]; in [6]) was > 32 µM (inactive) in each case. In addition, the EC50 at Mu-type opioid receptor [3] is > 32 µM (inactive); in [4], 17.9 µM (inactive); in [5], > 32 µM (inactive); in data set [7] it was > 32 µM (inactive).
As to `Cc1c(Cl)cccc1NC(=O)C1NC(=O)CC1c1ccccc1` (stereo unspecified), the AC50 in the data set with Escherichia coli is 27.6 µM (active).
Turning to `COc1ccc(-c2nnc(Nc3nc4ccc(SC)cc4s3)o2)cc1`, the IC50 in data set [8] was 15.4 µM (active).
Regarding `Cc1ccc(O)c2c1C1C=CCC1C(C(=O)O)N2` (stereo unspecified), the IC50 in data set [9] is 2.63 µM (active); in data set [10], > 100 µM (not active); in [11], > 100 µM (inactive); in data set [12] it was 86.4 µM (active).
As to `O=C(OC1CCN(c2ccc([N+](=O)[O-])cc2)CC1)c1ccccc1`, the AC50 is 0.794 µM (inconclusive) at Cytochrome P450 2C19 and “inconclusive” on Cytochrome P450 3A4.
